Measured values published in ChEMBL document CHEMBL5346873, “Strategic modification of low-activity natural antimicrobial peptides confers antibacterial potential in vitro and in vivo” (Eur J Med Chem, 2023).
Activity calls are given as the source filed them. The calls are words filed in the database; no cut-off is given here.

How the values were obtained:
Streptococcus agalactiae [1] = assay: Synergistic antibacterial activity against Streptococcus agalactiae assessed as meropenem MIC by checkerboard microtiter plate assay; format: functional
Salmonella enterica = assay: Antibacterial activity against Salmonella enterica incubated for 16 to 20 hrs; format: functional; details: time 16-20 hrs
Vibrio vulnificus [2] = assay: Synergistic antibacterial activity against Vibrio vulnificus in presence of meropenem by checkerboard microtiter plate assay; format: functional
Streptococcus iniae [3] = assay: Antibacterial activity against Streptococcus iniae incubated for 16 to 20 hrs; format: functional; details: time 16-20 hrs
Escherichia coli [4] = assay: Synergistic antibacterial activity against Escherichia coli assessed as meropenem MIC by checkerboard microtiter plate assay; format: functional
Pseudomonas aeruginosa [5] = assay: Bactericidal activity against Pseudomonas aeruginosa incubated overnight; format: functional
Vibrio vulnificus [6] = assay: Antibiofilm activity against Vibrio vulnificus 204 assessed as inhibition of biofilm formation at 50 to 100 ug/ml incubated for 24 hrs by crystal violet staining based assay; format: functional, organism-based; details: dose 50-100 µg/ml
Vibrio vulnificus [7] = assay: Antibacterial activity against Vibrio vulnificus in presence of 10 ug/ml proteinase K; format: functional, organism-based
Vibrio vulnificus [8] = assay: Antibacterial activity against Vibrio vulnificus V3 incubated for 16 to 20 hrs; format: functional; details: time 16-20 hrs
Pseudomonas aeruginosa [9] = assay: Additive antibacterial activity against Pseudomonas aeruginosa in presence of meropenem by checkerboard microtiter plate assay; format: functional
Streptococcus agalactiae [10] = assay: Bactericidal activity against Streptococcus agalactiae incubated overnight; format: functional
Vibrio vulnificus [11] = assay: Antibiofilm activity against Vibrio vulnificus V1 assessed as inhibition of biofilm formation at 25 to 100 ug/ml incubated for 24 hrs by crystal violet staining based assay; format: functional, organism-based; details: dose 25-100 µg/ml
Vibrio vulnificus [12] = assay: Antibiofilm activity against Vibrio vulnificus 204 assessed as inhibition of biofilm formation at 25 to 100 ug/ml incubated for 24 hrs by crystal violet staining based assay; format: functional, organism-based; details: dose 25-100 µg/ml
Klebsiella pneumoniae [13] = assay: Synergistic antibacterial activity against Klebsiella pneumoniae expressing NDM1 assessed as doxycycline MIC by checkerboard microtiter plate assay; format: functional
Streptococcus iniae [14] = assay: Bactericidal activity against Streptococcus iniae incubated overnight; format: functional
[15] = Cytotoxicity against human HaCaT cells incubated for 24 hrs by MTS assay; format: toxicity, cell-based; details: read-out: LD50
Vibrio vulnificus [16] = assay: Bactericidal activity against Vibrio vulnificus V2 incubated overnight; format: functional
Vibrio vulnificus [17] = assay: Synergistic antibacterial activity against Vibrio vulnificus assessed as fractional inhibitory concentration in presence of doxycycline by checkerboard microtiter plate assay; format: functional
Vibrio vulnificus [18] = assay: Antibiofilm activity against Vibrio vulnificus 204 assessed as inhibition of biofilm formation at 25 ug/ml incubated for 24 hrs by crystal violet staining based assay; format: functional, organism-based; details: dose 25.0 µg/ml
Vibrio vulnificus [19] = assay: Synergistic antibacterial activity against Vibrio vulnificus in presence of doxycycline by checkerboard microtiter plate assay; format: functional
Vibrio vulnificus [20] = assay: Antibiofilm activity against Vibrio vulnificus V3 assessed as inhibition of biofilm formation at 50 to 100 ug/ml incubated for 24 hrs by crystal violet staining based assay; format: functional, organism-based; details: dose 50-100 µg/ml
Klebsiella oxytoca [21] = assay: Antibacterial activity against Klebsiella oxytoca incubated for 16 to 20 hrs; format: functional; details: time 16-20 hrs
Acinetobacter baumannii = assay: Additive antibacterial activity against Acinetobacter baumannii assessed as meropenem MIC by checkerboard microtiter plate assay; format: functional
Klebsiella pneumoniae [22] = assay: Synergistic antibacterial activity against Klebsiella pneumoniae expressing NDM1 assessed as fractional inhibitory concentration in presence of doxycycline by checkerboard microtiter plate assay; format: functional
Vibrio vulnificus [23] = assay: Antibacterial activity against Vibrio vulnificus in presence of pancreatin; format: functional, organism-based
Cell membrane [24] = assay: Induction of membrane depolarization in Vibrio vulnificus at 100 ug/ml by DiBAC4(3) dye based fluorescence analysis; format: subcellular; details: dose 100.0 µg/ml
Enterococcus faecium = assay: Antibacterial activity against Enterococcus faecium incubated for 16 to 20 hrs; format: functional; details: time 16-20 hrs
[25] = system: Staphylococcus haemolyticus; assay: Antibacterial activity against Staphylococcus haemolyticus incubated for 16 to 20 hrs; format: functional; details: time 16-20 hrs
Cell membrane [26] = assay: Induction of membrane lysis in Vibrio vulnificus at 1 time MIC incubated for 1 hr by TEM analysis; format: subcellular
Klebsiella oxytoca [27] = assay: Bactericidal activity against Klebsiella oxytoca incubated overnight; format: functional
Vibrio vulnificus [28] = assay: Antibacterial activity against Vibrio vulnificus in presence of 0.1 ug/ml trypsin; format: functional, organism-based
Vibrio vulnificus [29] = assay: Antibacterial activity against Vibrio vulnificus in presence of 0.1 ug/ml pepsin; format: functional, organism-based
Klebsiella aerogenes = assay: Antibacterial activity against Enterobacter aerogenes incubated for 16 to 20 hrs; format: functional; details: time 16-20 hrs
Nakaseomyces glabratus = assay: Antifungal activity against Candida glabrata incubated for 16 to 20 hrs; format: functional; details: time 16-20 hrs
Aeromonas hydrophila [30] = assay: Antibacterial activity against Aeromonas hydrophila incubated for 16 to 20 hrs; format: functional; details: time 16-20 hrs
Edwardsiella tarda [31] = assay: Bactericidal activity against Edwardsiella tarda incubated overnight; format: functional
Vibrio vulnificus [32] = assay: Antibiofilm activity against Vibrio vulnificus V3 assessed as inhibition of biofilm formation at 25 ug/ml incubated for 24 hrs by crystal violet staining based assay; format: functional, organism-based; details: dose 25.0 µg/ml
Vibrio vulnificus [33] = assay: Antibiofilm activity against Vibrio vulnificus V3 assessed as inhibition of biofilm formation at 25 to 100 ug/ml incubated for 24 hrs by crystal violet staining based assay; format: functional, organism-based; details: dose 25-100 µg/ml
Vibrio vulnificus [34] = assay: Antibiofilm activity against Vibrio vulnificus V2 assessed as inhibition of biofilm formation at 25 to 100 ug/ml incubated for 24 hrs by crystal violet staining based assay; format: functional, organism-based; details: dose 25-100 µg/ml
Vibrio vulnificus [35] = assay: Antibacterial activity against Vibrio vulnificus at pH 2 to 10; format: functional, organism-based
Escherichia coli [36] = assay: Bactericidal activity against Escherichia coli incubated overnight; format: functional
Vibrio vulnificus [37] = assay: Synergistic antibacterial activity against Vibrio vulnificus assessed as meropenem MIC by checkerboard microtiter plate assay; format: functional
Aeromonas hydrophila [38] = assay: Bactericidal activity against Aeromonas hydrophila incubated overnight; format: functional
Vibrio alginolyticus = assay: Antibacterial activity against Vibrio alginolyticus incubated for 16 to 20 hrs; format: functional; details: time 16-20 hrs
Pseudomonas aeruginosa [39] = assay: Additive antibacterial activity against Pseudomonas aeruginosa assessed as fractional inhibitory concentration in presence of meropenem by checkerboard microtiter plate assay; format: functional
Klebsiella pneumoniae [40] = assay: Antibacterial activity against NDM Klebsiella pneumoniae incubated for 16 to 20 hrs; format: functional; details: time 16-20 hrs
Vibrio vulnificus [41] = assay: Antibacterial activity against Vibrio vulnificus in presence of 1 to 10 ug/ml trypsin; format: functional, organism-based
Edwardsiella tarda [42] = assay: Antibacterial activity against Edwardsiella tarda incubated for 16 to 20 hrs; format: functional; details: time 16-20 hrs
Escherichia coli [43] = assay: Synergistic antibacterial activity against Escherichia coli in presence of meropenem by checkerboard microtiter plate assay; format: functional
Streptococcus iniae [44] = assay: Additive antibacterial activity against Streptococcus iniae assessed as fractional inhibitory concentration in presence of meropenem by checkerboard microtiter plate assay; format: functional
Staphylococcus aureus = assay: Bactericidal activity against Staphylococcus aureus incubated for overnight; format: functional
[45] = Dermal toxicity in BALB/c mouse assessed as irritation at 125 mg/kg, TOPp measured after 48 hrs; format: organism-based; details: in vivo, topical_or_ocular
Pseudomonas aeruginosa [46] = assay: Additive antibacterial activity against Pseudomonas aeruginosa assessed as meropenem MIC by checkerboard microtiter plate assay; format: functional
Escherichia coli [47] = assay: Antibacterial activity against Escherichia coli incubated for 16 to 20 hrs; format: functional; details: time 16-20 hrs
Vibrio vulnificus [48] = assay: Antibacterial activity against Vibrio vulnificus 204 in presence of human serum; format: functional, organism-based
Vibrio vulnificus [49] = assay: Bactericidal activity against Vibrio vulnificus V1 incubated overnight; format: functional
Cell membrane [50] = assay: Induction of membrane deformation in Vibrio vulnificus at 1 to 2 times MIC incubated for 30 mins by SEM analysis; format: subcellular

## H-FKWKSVLKGVKGFVKGYF-OH
Streptococcus agalactiae [1]
  MIC: 0.002 µg/mL
Salmonella enterica
  MIC: 12.5 µg/mL
Vibrio vulnificus [2]
  MIC: 0.097 µg/mL
Streptococcus iniae [3]
  MIC: < 1.56 µg/mL
Escherichia coli [4]
  MIC: 0.001 µg/mL
Pseudomonas aeruginosa [5]
  MBC: 50 µg/mL
Vibrio vulnificus [6]
  Activity: Active
Vibrio vulnificus [7]
  Activity: inactive
Vibrio vulnificus [8]
  MIC: 12.5 µg/mL
Pseudomonas aeruginosa [9]
  MIC: 6.25 µg/mL
Streptococcus agalactiae [10]
  MBC: 3.12 µg/mL
Vibrio vulnificus [11]
  Activity: Active
Vibrio vulnificus [12]
  Activity: Active
Klebsiella pneumoniae [13]
  MIC: 1.56 µg/mL
Streptococcus iniae [14]
  MBC: < 1.56 µg/mL
[15]
  CC50 at 24 h: > 100 µg/mL
Vibrio vulnificus [16]
  MBC: 12.5 µg/mL
Vibrio vulnificus [17]
  FIC: 0.14
Vibrio vulnificus [18]
  Activity: inactive
Vibrio vulnificus [19]
  MIC: 0.097 µg/mL
Vibrio vulnificus [20]
  Activity: Active
Klebsiella oxytoca [21]
  MIC: 25 µg/mL
Acinetobacter baumannii
  MIC: 0.195 µg/mL
Klebsiella pneumoniae [22]
  FIC: 0.18
Vibrio vulnificus [23]
  Activity: Active
Cell membrane [24]
  Activity: Active
Enterococcus faecium
  MIC: 25 µg/mL
[25]
  MIC: < 1.56 µg/mL
Cell membrane [26]
  Activity: Active
Klebsiella oxytoca [27]
  MBC: 25 µg/mL
Vibrio vulnificus [28]
  Activity: Active
Vibrio vulnificus [29]
  Activity: Active
Klebsiella aerogenes
  MIC: 12.5 µg/mL
Nakaseomyces glabratus
  MIC: > 100 µg/mL
Aeromonas hydrophila [30]
  MIC: > 100 µg/mL
Edwardsiella tarda [31]
  MBC: 50 µg/mL
Vibrio vulnificus [32]
  Activity: inactive
Vibrio vulnificus [33]
  Activity: Active
Vibrio vulnificus [34]
  Activity: Active
Vibrio vulnificus [35]
  Activity: Active
Escherichia coli [36]
  MBC: 6.25 µg/mL
Vibrio vulnificus [37]
  MIC: 0.003 µg/mL
Aeromonas hydrophila [38]
  MBC: > 100 µg/mL
Vibrio alginolyticus
  MIC: 3.12 µg/mL
Pseudomonas aeruginosa [39]
  FIC: 0.75
Klebsiella pneumoniae [40]
  MIC: 25 µg/mL
Vibrio vulnificus [41]
  Activity: Active
Edwardsiella tarda [42]
  MIC: 50 µg/mL
Escherichia coli [43]
  MIC: 0.097 µg/mL
Streptococcus iniae [44]
  FIC: 0.51
Staphylococcus aureus
  MBC: 50 µg/mL
[45]
  Activity: Non-Toxic
Pseudomonas aeruginosa [46]
  MIC: 0.195 µg/mL
Escherichia coli [47]
  MIC: 6.25 µg/mL
Vibrio vulnificus [48]
  Activity: Active
Vibrio vulnificus [49]
  MBC: 12.5 µg/mL
Cell membrane [50]
  Activity: Active

## H-KKCIAKAILKKAKKLLKKLVNP-OH
Streptococcus agalactiae [1]
  MIC: 0.002 µg/mL
Salmonella enterica
  MIC: 12.5 µg/mL
Vibrio vulnificus [2]
  MIC: 0.195 µg/mL
Streptococcus iniae [3]
  MIC: < 1.56 µg/mL
Escherichia coli [4]
  MIC: 0.001 µg/mL
Pseudomonas aeruginosa [5]
  MBC: 50 µg/mL
Vibrio vulnificus [6]
  Activity: Active
Vibrio vulnificus [7]
  Activity: inactive
Vibrio vulnificus [8]
  MIC: 12.5 µg/mL
Pseudomonas aeruginosa [9]
  MIC: 0.78 µg/mL
Streptococcus agalactiae [10]
  MBC: 3.12 µg/mL
Vibrio vulnificus [11]
  Activity: Active
Vibrio vulnificus [12]
  Activity: Active
Klebsiella pneumoniae [13]
  MIC: 3.12 µg/mL
Streptococcus iniae [14]
  MBC: < 1.56 µg/mL
[15]
  CC50 at 24 h: > 100 µg/mL
Vibrio vulnificus [16]
  MBC: 12.5 µg/mL
Vibrio vulnificus [17]
  FIC: 0.14
Vibrio vulnificus [18]
  Activity: inactive
Vibrio vulnificus [19]
  MIC: 0.195 µg/mL
Vibrio vulnificus [20]
  Activity: Active
Klebsiella oxytoca [21]
  MIC: 50 µg/mL
Acinetobacter baumannii
  MIC: 0.195 µg/mL
Klebsiella pneumoniae [22]
  FIC: 0.37
Vibrio vulnificus [23]
  Activity: Active
Cell membrane [24]
  Activity: Active
Enterococcus faecium
  MIC: > 100 µg/mL
[25]
  MIC: < 1.56 µg/mL
Cell membrane [26]
  Activity: Active
Klebsiella oxytoca [27]
  MBC: 50 µg/mL
Vibrio vulnificus [28]
  Activity: Active
Vibrio vulnificus [29]
  Activity: Active
Klebsiella aerogenes
  MIC: 12.5 µg/mL
Nakaseomyces glabratus
  MIC: > 100 µg/mL
Aeromonas hydrophila [30]
  MIC: > 100 µg/mL
Edwardsiella tarda [31]
  MBC: > 100 µg/mL
Vibrio vulnificus [32]
  Activity: inactive
Vibrio vulnificus [33]
  Activity: Active
Vibrio vulnificus [34]
  Activity: Active
Vibrio vulnificus [35]
  Activity: Active
Escherichia coli [36]
  MBC: 12.5 µg/mL
Vibrio vulnificus [37]
  MIC: 0.003 µg/mL
Aeromonas hydrophila [38]
  MBC: > 100 µg/mL
Vibrio alginolyticus
  MIC: 3.12 µg/mL
Pseudomonas aeruginosa [39]
  FIC: 0.53
Klebsiella pneumoniae [40]
  MIC: 25 µg/mL
Vibrio vulnificus [41]
  Activity: Active
Edwardsiella tarda [42]
  MIC: > 100 µg/mL
Escherichia coli [43]
  MIC: 0.39 µg/mL
Streptococcus iniae [44]
  FIC: 0.51
Staphylococcus aureus
  MBC: > 100 µg/mL
[45]
  Activity: Non-Toxic
Pseudomonas aeruginosa [46]
  MIC: 0.195 µg/mL
Escherichia coli [47]
  MIC: 12.5 µg/mL
Vibrio vulnificus [48]
  Activity: Active
Vibrio vulnificus [49]
  MBC: 12.5 µg/mL
Cell membrane [50]
  Activity: Active
